Each compound was assayed against Human CD38 (Homo sapiens (Human), UniProt P28907) (assay: CD38 enzyme assay). Settings: 2 nM CD38, NAD+ substrate, absorbance at 405 nm.
Format: biochemical
From the text: [formula] where SUBcmpd is the subtracted value for the individual compound treated well, SUBmin is the average of the subtracted values of the 4-(((1r,4r)-4-(2-methoxyethoxy)cyclohexyl)amino)-1-methyl-6-(thiazol-5-yl)quinolin-2(1H)-one positive control wells and SUBmax is the average of the subtracted values of the DMSO negative control wells.
The % inhibition values were plotted as a function of compound concentration and the following 4-parameter fit was applied to derive the IC50 values:
[formula] where top and bottom are normally allowed to float, but may be fixed at 100 or 0 respectively in a 3-parameter fit. The Hill Coefficient is normally allowed to float but may also be fixed at 1 in a 3-parameter fit. Y is the % inhibition and X is the compound concentration.

Chain of Human CD38 (P28907 whole entry): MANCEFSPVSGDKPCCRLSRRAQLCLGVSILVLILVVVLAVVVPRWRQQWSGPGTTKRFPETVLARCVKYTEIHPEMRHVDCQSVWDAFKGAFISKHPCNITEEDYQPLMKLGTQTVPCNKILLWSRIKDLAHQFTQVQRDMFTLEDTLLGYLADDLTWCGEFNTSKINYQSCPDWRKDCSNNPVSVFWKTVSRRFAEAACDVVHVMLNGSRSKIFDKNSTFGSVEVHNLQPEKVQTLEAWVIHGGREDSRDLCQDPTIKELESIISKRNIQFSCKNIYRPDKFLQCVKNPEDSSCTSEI

Row | SMILES | IC50 [nM]
1 | O=C(NC1CCCCC1)c1nc(-n2ccnc2)nc2cc[nH]c12 [Example 59, N-cyclohexyl-2-(1H-Imidazol-1-yl)-5H-pyrrolo[3,2-d]pyrimidine-4-carboxamide] | < 10
2 | CN1CCC(NC(=O)c2nc(-n3ccnc3)nc3cc[nH]c23)CC1 [Example 60, 2-(1H-Imidazol-1-yl)-N-(1-methylpiperidin-4-yl)-5H-pyrrolo[3,2-d]pyrimidine-4-carboxamide] | > 1000
3 | O=C(NC1CCS(=O)(=O)CC1)c1nc(-n2ccnc2)nc2cc[nH]c12 [Example 61, N-(1,1-Dioxidotetrahydro-2H-thiopyran-4-yl)-2-(1H-imidazol-1-yl)-5H-pyrrolo[3,2-d]pyrimidine-4-carboxamide] | 10 to 100
4 | O=C(NC1CCOCC1)c1nc(-n2ccnc2)nc2cc[nH]c12 [Example 62, 2-(1H-Imidazol-1-yl)-N-(tetrahydro-2H-pyran-4-yl)-5H-pyrrolo[3,2-d]pyrimidine-4-carboxamide] | 10 to 100
5 | COCCOc1ccc(NC(=O)c2nc(-n3ccnc3)nc3cc[nH]c23)cc1 [Example 63, 2-(1H-Imidazol-1-yl)-N-(4-(2-methoxyethoxy)phenyl)-5H-pyrrolo[3,2-d]pyrimidine-4-carboxamide] | < 10
6 | CC(=O)N1CCC(NC(=O)c2nc(-n3ccnc3)nc3cc[nH]c23)CC1 [Example 64, N-(1-Acetylpiperidin-4-yl)-2-(1H-imidazol-1-yl)-5H-pyrrolo[3,2-d]pyrimidine-4-carboxamide] | 10 to 100
7 | COCCO[C@H]1C[C@H](NC(=O)c2nc(-n3ccnc3)nc3cc[nH]c23)C1 [Example 65, 2-(1H-Imidazol-1-yl)-N-((1r,3r)-3-(2-methoxyethoxy)cyclobutyl)-5H-pyrrolo[3,2-d]pyrimidine-4-carboxamide] | 10 to 100
8 | CO[C@H]1C[C@H](NC(=O)c2nc(-n3ccnc3)nc3cc[nH]c23)C1 [Example 66, 2-(1H-Imidazol-1-yl)-N-((1r,3r)-3-methoxycyclobutyl)-5H-pyrrolo[3,2-d]pyrimidine-4-carboxamide] | 10 to 100
9 | O=C(NC1CCN(CCC(F)(F)F)C1)c1nc(-n2ccnc2)nc2cc[nH]c12 (stereo not drawn) [Example 67, 2-(1H-Imidazol-1-yl)-N-(1-(3,3,3-trifluoropropyl)pyrrolidin-3-yl)-5H-pyrrolo[3,2-d]pyrimidine-4-carboxamide] | 10 to 100
10 | O=C(NC1CCN(CC(F)(F)F)C1)c1nc(-n2ccnc2)nc2cc[nH]c12 (stereo not drawn) [Example 68, 2-(1H-Imidazol-1-yl)-N-(1-(2,2,2-trifluoroethyl)pyrrolidin-3-yl)-5H-pyrrolo[3,2-d]pyrimidine-4-carboxamide] | 10 to 100
11 | COCCO[C@H]1CC[C@@H](NC(=O)c2nc(-n3ccnc3)nc3cc[nH]c23)CC1 [Example 69, 2-(1H-Imidazol-1-yl)-N-((1s,4s)-4-(2-methoxyethoxy)cyclohexyl)-5H-pyrrolo[3,2-d]pyrimidine-4-carboxamide] | 10 to 100
12 | CNCCO[C@H]1CC[C@H](NC(=O)c2nc(-n3ccnc3)nc3cc[nH]c23)CC1 [Example 71, 2-(1H-Imidazol-1-yl)-N-((1r,4r)-4-(2-(methylamino)ethoxy)cyclohexyl)-5H-pyrrolo[3,2-d]pyrimidine-4-carboxamide] | 10 to 100
13 | CN(C)CCO[C@H]1CC[C@H](NC(=O)c2nc(-n3ccnc3)nc3cc[nH]c23)CC1 [Example 72, N-((1r,4r)-4-(2-(Dimethylamino)ethoxy)cyclohexyl)-2-(1H-imidazol-1-yl)-5H-pyrrolo[3,2-d]pyrimidine-4-carboxamide] | 10 to 100
14 | O=C(NC1CCNC1)c1nc(-n2ccnc2)nc2cc[nH]c12 (stereo not drawn) [Example 73, 2-(1H-Imidazol-1-yl)-N-(pyrrolidin-3-yl)-5H-pyrrolo[3,2-d]pyrimidine-4-carboxamide] | 100 to 1000
15 | CN1CCC(NC(=O)c2nc(-n3ccnc3)nc3cc[nH]c23)C1 (stereo not drawn) [Example 74, 2-(1H-Imidazol-1-yl)-N-(1-methylpyrrolidin-3-yl)-5H-pyrrolo[3,2-d]pyrimidine-4-carboxamide] | 100 to 1000
16 | CS(=O)(=O)N1CCC(NC(=O)c2nc(-n3ccnc3)nc3cc[nH]c23)CC1 [Example 75, 2-(1H-Imidazol-1-yl)-N-(1-(methylsulfonyl)piperidin-4-yl)-5H-pyrrolo[3,2-d]pyrimidine-4-carboxamide] | < 10
17 | O=C(NC1CCN(C2COC2)CC1)c1nc(-n2ccnc2)nc2cc[nH]c12 [Example 76, 2-(1H-Imidazol-1-yl)-N-(1-(oxetan-3-yl)piperidin-4-yl)-5H-pyrrolo[3,2-d]pyrimidine-4-carboxamide] | 10 to 100
18 | O=C(NC1CCC1)c1nc(-n2ccnc2)nc2cc[nH]c12 [Example 77, N-Cyclobutyl-2-(1H-imidazol-1-yl)-5H-pyrrolo[3,2-d]pyrimidine-4-carboxamide] | < 10
19 | O=C(NCC1CCCCC1)c1nc(-n2ccnc2)nc2cc[nH]c12 [Example 78, N-(Cyclohexylmethyl)-2-(1H-imidazol-1-yl)-5H-pyrrolo[3,2-d]pyrimidine-4-carboxamide] | 10 to 100
20 | O=C(NCc1ccccc1)c1nc(-n2ccnc2)nc2cc[nH]c12 [Example 79, N-Benzyl-2-(1H-imidazol-1-yl)-5H-pyrrolo[3,2-d]pyrimidine-4-carboxamide] | 100 to 1000
21 | CNC(=O)CO[C@H]1CC[C@H](NC(=O)c2nc(-n3ccnc3)nc3cc[nH]c23)CC1 [Example 80, 2-(1H-Imidazol-1-yl)-N-((1r,4r)-4-(2-(methylamino)-2-oxoethoxy)cyclohexyl)-5H-pyrrolo[3,2-d]pyrimidine-4-carboxamide] | 10 to 100
22 | O=C(Nc1cccc(Cl)c1)c1nc(-n2ccnc2)nc2cc[nH]c12 [Example 88, N-(3-Chlorophenyl)-2-(1H-imidazol-1-yl)-5H-pyrrolo[3,2-d]pyrimidine-4-carboxamide] | < 10
23 | O=C(NC1CCCC1)c1nc(-n2ccnc2)nc2cc[nH]c12 [Example 90, N-Cyclopentyl-2-(1H-imidazol-1-yl)-5H-pyrrolo[3,2-d]pyrimidine-4-carboxamide] | < 10
24 | O=C(NC1CCOC1)c1nc(-n2ccnc2)nc2cc[nH]c12 (stereo not drawn) [Example 91, 2-(1H-Imidazol-1-yl)-N-(tetrahydrofuran-3-yl)-5H-pyrrolo[3,2-d]pyrimidine-4-carboxamide] | < 10
25 | O=C(NC1CCCCCC1)c1nc(-n2ccnc2)nc2cc[nH]c12 [Example 92, N-Cycloheptyl-2-(1H-imidazol-1-yl)-5H-pyrrolo[3,2-d]pyrimidine-4-carboxamide] | < 10
26 | O=C(Nc1ccc(F)c(Cl)c1)c1nc(-n2ccnc2)nc2cc[nH]c12 [Example 96, N-(3-Chloro-4-fluorophenyl)-2-(1H-imidazol-1-yl)-5H-pyrrolo[3,2-d]pyrimidine-4-carboxamide] | < 10
27 | O=C(N[C@H]1CC[C@H](OCCN2CCOCC2)CC1)c1nc(-n2ccnc2)nc2cc[nH]c12 [Example 97, 2-(1H-Imidazol-1-yl)-N-((1r,4r)-4-(2-morpholinoethoxy)cyclohexyl)-5H-pyrrolo[3,2-d]pyrimidine-4-carboxamide] | 10 to 100

Further lines, results first:

Row | IC50 [nM] | SMILES
28 | 100 to 1000 | CNC(=O)c1nc(-n2ccnc2)nc2cc[nH]c12 [Example 70, 2-(1H-Imidazol-1-yl)-N-methyl-5H-pyrrolo[3,2-d]pyrimidine-4-carboxamide]
29 | < 10 | O=C(Nc1ccccn1)c1nc(-n2ccnc2)nc2cc[nH]c12 [Example 81, 2-(1H-Imidazol-1-yl)-N-(pyridin-2-yl)-5H-pyrrolo[3,2-d]pyrimidine-4-carboxamide]
30 | < 10 | O=C(Nc1ccccc1)c1nc(-n2ccnc2)nc2cc[nH]c12 [Example 82, 2-(1H-Imidazol-1-yl)-N-phenyl-5H-pyrrolo[3,2-d]pyrimidine-4-carboxamide]
31 | < 10 | O=C(Nc1cccnc1)c1nc(-n2ccnc2)nc2cc[nH]c12 [Example 83, 2-(1H-Imidazol-1-yl)-N-(pyridin-3-yl)-5H-pyrrolo[3,2-d]pyrimidine-4-carboxamide]
32 | < 10 | COc1ccc(NC(=O)c2nc(-n3ccnc3)nc3cc[nH]c23)nc1 [Example 84, 2-(1H-Imidazol-1-yl)-N-(5-methoxypyridin-2-yl)-5H-pyrrolo[3,2-d]pyrimidine-4-carboxamide]
33 | < 10 | COc1ccc(NC(=O)c2nc(-n3ccnc3)nc3cc[nH]c23)cn1 [Example 85, 2-(1H-Imidazol-1-yl)-N-(6-methoxypyridin-3-yl)-5H-pyrrolo[3,2-d]pyrimidine-4-carboxamide]
34 | < 10 | O=C(Nc1cc[nH]n1)c1nc(-n2ccnc2)nc2cc[nH]c12 [Example 86, 2-(1H-Imidazol-1-yl)-N-(1H-pyrazol-3-yl)-5H-pyrrolo[3,2-d]pyrimidine-4-carboxamide]
35 | < 10 | O=C(Nc1ccc(Cl)cc1)c1nc(-n2ccnc2)nc2cc[nH]c12 [Example 87, N-(4-Chlorophenyl)-2-(1H-imidazol-1-yl)-5H-pyrrolo[3,2-d]pyrimidine-4-carboxamide]
36 | < 10 | O=C(Nc1ccccc1Cl)c1nc(-n2ccnc2)nc2cc[nH]c12 [Example 89, N-(2-Chlorophenyl)-2-(1H-imidazol-1-yl)-5H-pyrrolo[3,2-d]pyrimidine-4-carboxamide]
37 | 10 to 100 | CC(C)NC(=O)c1nc(-n2ccnc2)nc2cc[nH]c12 [Example 93, 2-(1H-Imidazol-1-yl)-N-isopropyl-5H-pyrrolo[3,2-d]pyrimidine-4-carboxamide]
38 | < 10 | Cn1ccc(NC(=O)c2nc(-n3ccnc3)nc3cc[nH]c23)n1 [Example 94, 2-(1H-Imidazol-1-yl)-N-(1-methyl-1H-pyrazol-3-yl)-5H-pyrrolo[3,2-d]pyrimidine-4-carboxamide]
39 | 10 to 100 | Cn1cnc(NC(=O)c2nc(-n3ccnc3)nc3cc[nH]c23)c1 [Example 95, 2-(1H-Imidazol-1-yl)-N-(1-methyl-1H-imidazol-4-yl)-5H-pyrrolo[3,2-d]pyrimidine-4-carboxamide]

— US11535621B2, “Heterobicyclic amides as inhibitors of CD38” (Ribon Therapeutics, Inc., priority 2019, dated 2022)
